Assays:
[1] = system: microbes that cause respiratory disease in animals; test: Activity against the microbes that cause respiratory disease in animals (statement); type: cell-based
[2] = Injection site reactions in cattle; type: in vivo; details: injectable pharmaceutical compositions
Procedure: Cattle injected with injectable pharmaceutical compositions containing Compound (A) were evaluated for reactions at the injection site. These injection site reactions were compared to the injection site reactions of cattle injected with injectable pharmaceutical compositions containing Compounds (B) and (C). The compounds were formulated as aqueous solution injectable pharmaceutical compositions or as suspension injectable pharmaceutical compositions as indicated below. These formulations were prepared as described in Examples 1 and 2. Compound (A) was formulated as both an aqueous solution using the free base form of the compound and as a suspense using the dihydrochloride salt of the compound. The composition of the aqueous solution injectable pharmaceutical composition was 15% w/v of Compound A, 15% w/v Poloxamer […], 6% w/v Benzyl Alcohol, 7% w/v Citric Acid, and QS Water. The composition of the suspension injectable pharmaceutical composition was 15% w/v Compound A (17.5% w/v HCl salt of Compound A), 0.1% w/v Kolliphor HS 15 and QS Miglyol 812. Compound A was administered to the animals in a dose of 10 mg/kilogram of body weight. Compound (B) was formulated as both an aqueous solution using the free base form of the compound and as a suspense using the dihydrochloride salt of the compound. The composition of the aqueous solution injectable pharmaceutical composition was 15% w/v of Compound B, 15% w/v Poloxamer […], 6% w/v Benzyl Alcohol, 7% w/v Citric Acid, and QS Water. The composition of the suspension injectable pharmaceutical composition was 15% w/v Compound B (17.5% w/v HCl salt of Compound B), 0.1% w/v Kolliphor HS 15 and QS Miglyol 812. Compound A was administered to the animals in a dose of 10 mg/kilogram of body weight. Compound (C) was formulated as both an aqueous solution using the free base form of the compound. The composition of the aqueous solution injectable pharmaceutical composition was 10% w/v of Compound C, 15% w/v Poloxamer […], 6% w/v Benzyl Alcohol, 7% w/v Citric Acid, and QS Water. Compound A was administered to the animals in a dose of 10 mg/kilogram of body weight. Injection sites were examined clinically by a trained person, Size of the swelling is measured with a ruler to the closest 0.5 cm horizontally, vertical and depth. These three measured values were multiplied to an estimation of the volume of the square box surrounding the observed swelling.

Structure (SMILES) | Activity against the microbes that cause respiratory disease in animals [1] | Injection site reactions, overall assessment [2] | Injection site reactions, overall assessment ([2]; listed as Compound (C)) | Injection site reactions, overall assessment ([2]; listed as Compound (B))
CC(C)(N)[C@H](NC(=O)c1ccc(C#Cc2ccc(CNCC(F)(F)F)cc2)cc1)C(=O)NO [Compound C] | active against the microbes that cause respiratory disease in animals | not resolved during the duration of the study | unacceptable injection site reactions | 
CC(C)(N)[C@H](NC(=O)c1ccc(C#Cc2ccc(CNC3CC3)cc2)cc1)C(=O)NO [Compound B] | active against the microbes that cause respiratory disease in animals | not resolved during the duration of the study |  | unacceptable injection site reactions

From patent US20250057790A1, “AN INJECTABLE PHARMACEUTICAL COMPOSITION FOR THE TREATMENT OF RESPIRATORY DISEASES IN ANIMALS” (priority 2021, published 2025)
